Values quoted from earlier work in EP1249231B1, “Pharmaceutical formulations comprising anti-inflammatory compounds and use thereof” (VESIFACT AG, priority 2001, dated 2002).

Conditions: free acid; background statement

In the case of `CC(C)Cc1ccc(C(C)C(=O)O)cc1` (stereo not shown) [Ibuprofen], the “Löslichkeit in Wasser und im sauren Milieu des Magensaftes” value is given as “schlecht löslich”.
